In brackets after ≈: the same amount, converted by molar mass. Where only a bound is given, the exact number is not on record here.

The source of these data is ChEMBL document CHEMBL3217508, “Synthesis and antifungal activity of the novel triazole compounds” (2013).

Holding throughout (format): functional
Test [1] relates to Trichophyton rubrum. Put plainly: Antifungal activity against Trichophyton rubrum assessed as growth inhibition by microbroth dilution method. Background: In broth dilution the organism is exposed to a series of concentrations in liquid medium.
Test [2] deals with Candida albicans. Put plainly: Antifungal activity against Candida albicans Y0109 assessed as growth inhibition after 24 hrs by microbroth dilution method. The note with it: Y0109, 24 h.
Test [3] relates to Aspergillus fumigatus. Briefly: Antifungal activity against Aspergillus fumigatus assessed as growth inhibition by microbroth dilution method.
Test [4] deals with Cryptococcus neoformans. Put plainly: Antifungal activity against Cryptococcus neoformans assessed as growth inhibition after 72 hrs by microbroth dilution method.
Test [5] relates to Kluyveromyces marxianus. Briefly: Antifungal activity against Candida kefyr assessed as growth inhibition by microbroth dilution method.
Test [6] deals with Candida tropicalis. Put plainly: Antifungal activity against Candida tropicalis assessed as growth inhibition by microbroth dilution method.
For test [7], the system named is Candida parapsilosis. Put plainly: Antifungal activity against Candida parapsilosis assessed as growth inhibition by microbroth dilution method. The note with it: Lodderomyces parapsilosis.
Test [8] has as its system Candida albicans. Put plainly: Antifungal activity against Candida albicans SC5314 assessed as growth inhibition after 24 hrs by microbroth dilution method. The note with it: SC5314, 24 h.
In test [9] the test system is Kluyveromyces marxianus. Put plainly: Ratio of fluconazole MIC80 to compound MIC80 against Candida kefyr.
For test [10], the system named is Candida albicans. Briefly: Ratio of fluconazole MIC80 to compound MIC80 against Candida albicans SC5314.

Regarding `Cc1ccc(Cn2cc(CN(C)CC(O)(Cn3cncn3)c3ccc(F)cc3F)nn2)cc1` (configuration not stated), the MIC80 in test [1] is 1 µg/mL; in test [2] it was less than 0.125 µg/mL; in test [3], more than 64 µg/mL; in test [4] it was 1 µg/mL (≈ 2.21 µM); in [5] it was 0.25 µg/mL; in test [6], 1 µg/mL. The results for the MIC80 in test [7] and in test [8] were 0.0625 µg/mL and 0.25 µg/mL (≈ 0.551 µM), respectively.
As for `CN(Cc1cn(Cc2cccc(Br)c2)nn1)CC(O)(Cn1cncn1)c1ccc(F)cc1F` (configuration not stated), the MIC80 in test [1] is 1 µg/mL; in [2], less than 0.125 µg/mL; in [3] it was more than 64 µg/mL; in test [4], 0.25 µg/mL (≈ 0.482 µM); in test [5], 0.25 µg/mL; in test [6], 0.25 µg/mL. Besides, the results for the MIC80 in test [7] and in test [8] were 0.0625 µg/mL and 0.25 µg/mL (≈ 0.482 µM), respectively.
In the case of `CN(Cc1cn(Cc2ccc([N+](=O)[O-])cc2)nn1)CC(O)(Cn1cncn1)c1ccc(F)cc1F` (configuration not stated), the MIC80 in [1] is 1 µg/mL; in test [2], 0.25 µg/mL (≈ 0.516 µM); in test [3], more than 64 µg/mL; in test [4], 0.25 µg/mL (≈ 0.516 µM); in [5], 0.25 µg/mL; in test [6], 0.25 µg/mL. Besides, the MIC80 in [7] stood at 0.25 µg/mL; in test [8] it was 0.25 µg/mL (≈ 0.516 µM).
Turning to `Cc1ccccc1Cn1cc(CN(C)CC(O)(Cn2cncn2)c2ccc(F)cc2F)nn1` (configuration not stated), the MIC80 in test [1] was 4 µg/mL; in [2], 0.25 µg/mL (≈ 0.551 µM); in test [3] it was more than 64 µg/mL; in [4], 0.25 µg/mL (≈ 0.551 µM); in [5], 0.25 µg/mL; in test [6] it was 0.25 µg/mL. In addition, the MIC80 in test [7] was 0.0625 µg/mL; in test [8] it was 0.25 µg/mL (≈ 0.551 µM).
Consider `CN(Cc1cn(Cc2ccccc2C#N)nn1)CC(O)(Cn1cncn1)c1ccc(F)cc1F` (configuration not stated), for which the MIC80 was 1 µg/mL in test [1]; less than 0.125 µg/mL in [2]; more than 64 µg/mL in test [3]; 0.25 µg/mL (≈ 0.538 µM) in [4]; 0.25 µg/mL in test [5]; 0.25 µg/mL in test [6]. The MIC80 came to 0.0625 µg/mL in test [7] and 0.25 µg/mL (≈ 0.538 µM) in test [8].
As to `CN(Cc1cn(Cc2ccc(F)cc2)nn1)CC(O)(Cn1cncn1)c1ccc(F)cc1F` (configuration not stated), the MIC80 in [1] is 4 µg/mL; in test [2], 0.5 µg/mL (≈ 1.09 µM); in test [3], more than 64 µg/mL; in [4], 1 µg/mL (≈ 2.19 µM); in test [5], 16 µg/mL; in test [6], 0.25 µg/mL. Besides, the results for the MIC80 in test [7] and in test [8] were 0.25 µg/mL and 1 µg/mL (≈ 2.19 µM), respectively.
For the compound `CN(Cc1cn(Cc2cccc([N+](=O)[O-])c2)nn1)CC(O)(Cn1cncn1)c1ccc(F)cc1F` (configuration not stated), the results for the Ratio in test [9] and in [10] were 64 and 32, respectively. Moreover, the MIC80 in test [1] is 0.0625 µg/mL; in [2], less than 0.125 µg/mL; in [3] it was more than 64 µg/mL; in [4] it was 0.25 µg/mL (≈ 0.516 µM); in [5], 0.0156 µg/mL; in [6] it was 0.0625 µg/mL. In addition, the results for the MIC80 in test [7] and in test [8] were 0.0625 µg/mL and 0.0156 µg/mL (≈ 0.0322 µM), respectively.
For the compound `OC(Cn1cncn1)(Cn1cncn1)c1ccc(F)cc1F` [FLUCONAZOLE], the MIC80 is 2 µg/mL in test [1]; 0.5 µg/mL (≈ 1.63 µM) in test [2]; more than 64 µg/mL in test [3]; 8 µg/mL (≈ 26.1 µM) in test [4]; 1 µg/mL in test [5]; less than 0.125 µg/mL in test [6]. Besides, the figures for the MIC80 in test [7] and in [8] were less than 0.125 µg/mL and 0.5 µg/mL (≈ 1.63 µM), respectively.
`CN(Cc1cn(Cc2ccccc2Br)nn1)CC(O)(Cn1cncn1)c1ccc(F)cc1F` (configuration not stated): the MIC80 in [1] is 0.25 µg/mL; in [2], 0.25 µg/mL (≈ 0.482 µM); in test [3], more than 64 µg/mL; in test [4] it was 0.25 µg/mL (≈ 0.482 µM); in test [5], 0.0625 µg/mL; in test [6], 0.25 µg/mL. Moreover, the MIC80 in test [7] is 0.25 µg/mL; in test [8] it was 0.25 µg/mL (≈ 0.482 µM).
As to `CN(Cc1cn(Cc2ccccc2Cl)nn1)CC(O)(Cn1cncn1)c1ccc(F)cc1F` (configuration not stated), the MIC80 in [1] was 4 µg/mL; in [2], 0.25 µg/mL (≈ 0.528 µM); in [3], more than 64 µg/mL; in test [4], 0.25 µg/mL (≈ 0.528 µM); in [5], 16 µg/mL; in test [6], 1 µg/mL. Moreover, the values for the MIC80 in test [7] and in test [8] were 0.25 µg/mL and 0.25 µg/mL (≈ 0.528 µM), respectively.

Usually MIC80 stands for the lowest concentration that inhibits either 80% of growth or 80% of the strains tested, depending on the study.
